Assay results reported in PMC6222422, “Synthesis and Biological Evaluation of Novel Indole-Derived Thioureas” (Molecules : A Journal of Synthetic Chemistry and Natural …, 2018).
Where two headings read alike, the source gives them in different places.

Experiments:
BVDV = assay: microbe, parasite or virus in culture; type: cell-based, bovine viral diarrhoea virus; details: for EC50: Bovine viral diarrhea virus isolates and strains, MDBK, in Bos taurus, read-out: BVDV EC50
YFV = assay: microbe, parasite or virus in culture; type: cell-based; details: Yellow fever virus, BHK, read-out: YFV EC50
CV-B5 = assay: microbe, parasite or virus in culture; type: cell-based, coxsackievirus B5; details: Enterovirus B, CVB5, Vero 76, read-out: CV-B5 EC50
Sb-1 = assay: microbe, parasite or virus in culture; type: cell-based, poliovirus type-1; details: Enterovirus C, Vero 76, read-out: Sb-1 EC50
Reo-1 = assay: microbe, parasite or virus in culture; type: cell-based, reovirus type-1; details: Reovirus sp., BHK, read-out: Reo-1 EC50
RSV = assay: microbe, parasite or virus in culture; type: cell-based, human respiratory syncytial virus; details: human respiratory syncytial virus, Vero 76, read-out: RSV EC50
VSV = assay: microbe, parasite or virus in culture; type: cell-based; details: Vesicular stomatitis virus, Vero 76, read-out: VSV EC50
VV = assay: microbe, parasite or virus in culture; type: cell-based; details: Orthopoxvirus vaccinia, Vero 76, read-out: VV EC50
HSV-1 = assay: microbe, parasite or virus in culture; type: cell-based, human herpes 1; details: Human alphaherpesvirus 1, Vero 76, read-out: HSV-1 EC50
BHK cells [1] = details: Syrian hamster (Mesocricetus auratus)
in vitro [2] = details: human
in vitro [3] = details: cattle (Bos taurus)
in vitro [4] = details: Syrian hamster (Mesocricetus auratus)
in vitro [5] = details: African green monkey (Cercopithecus aethiops)
HIV-1 = assay: microbe, parasite or virus in culture; details: Human immunodeficiency virus 1, MT4, read-out: HIV-1 EC50
Cytotoxicity, MTT method [6] = details: human
Cytotoxicity, MTT method [7] = details: cattle (Bos taurus)
Cytotoxicity, MTT method [8] = details: Syrian hamster (Mesocricetus auratus)
BHK cells [9] = assay: Cytotoxicity, MTT method; details: read-out: BHK CC50; reduce the proliferation of mock-infected BHK cells by 50% (Table 6)
Cytotoxicity, MTT method [10] = details: African green monkey (Cercopithecus aethiops)

| Structure (SMILES) | EC50 (BVDV) [µM] | EC50 (YFV) [µM] | EC50 (CV-B5) [µM] | EC50 (Sb-1) [µM] | EC50 (Reo-1) [µM] | EC50 (RSV) [µM] | EC50 (VSV) [µM] | EC50 (VV) [µM] | EC50 (HSV-1) [µM] | EC50 (HIV-1) [µM] | CC50 (Cytotoxicity, MTT method [6]) [µM] | CC50 (Cytotoxicity, MTT method [7]) [µM] | CC50 (Cytotoxicity, MTT method [8]) [µM] | CC50 (BHK cells [9]) [µM] | CC50 (Cytotoxicity, MTT method [10]) [µM] | further results |
| --- | --- | --- | --- | --- | --- | --- | --- | --- | --- | --- | --- | --- | --- | --- | --- | --- |
| CCOC(=O)NC(=S)NCCc1c[nH]c2ccccc12 [Compound 20, 1-(2-(1H-Indol-3-yl)ethyl)-3-ethoxycarbonylthiourea] | 35 ± 2.8 | > 100 | > 100 | > 100 | > 100 | > 100 | > 100 | > 100 | > 100 | > 100 |  |  |  |  |  | activity against BVDV (in words) (BVDV): showed activity; cytotoxicity for MDBK cell lines (in words) (MDBK cells): lack of cytotoxicity; CC50 (BHK cells [1]): > 100 µM; CC50 (in vitro [2]): > 100 µM; CC50 (in vitro [3]): > 100 µM; CC50 (in vitro [4]): > 100 µM; CC50 (in vitro [5]): > 100 µM |
| CNC(=S)NCCc1c[nH]c2ccccc12 [Compound 25, 1-(2-(1H-Indol-3-yl)ethyl)-3-methylthiourea] | > 100 | > 100 | > 100 | > 100 | > 100 | > 100 | > 100 | > 100 | > 100 | > 100 | > 100 | > 100 | > 100 | > 100 | > 100 |  |
| CCNC(=S)NCCc1c[nH]c2ccccc12 [Compound 22, 1-(2-(1H-Indol-3-yl)ethyl)-3-ethylthiourea] | > 100 | > 100 | > 100 | > 100 | > 100 | > 100 | > 100 | > 100 | > 100 | > 100 | > 100 | > 100 | > 100 | > 100 | > 100 |  |
